Assay results as given in patent EP0067641A2, “Amino acids” (BEECHAM GROUP PLC, priority 1981, dated 1982).
Marks after values point to notes of the source that are not given here.

System: rats made hyperlipidaemic by diet
Assay: Effects on serum lipids in vivo in rats made hyperlipidaemic by diet
Design: species or system Male Sprague-Dawley rats
Conditions: compound fed at 0.1% of the powdered diet (approximately 100 mg/kg/day), 7 days, (-) lower, (+) higher than control; for Percentage difference from Control Values in High Density lipoprotein (HDL) cholesterol: HDL fraction by heparin-manganous chloride precipitation, four pooled samples per group; for Percentage difference from Control Values in Total Serum Triglyceride / Percentage difference from Control Values in Total Serum Cholesterol: semi-synthetic diet rich in sucrose and cholesterol
Description: The compounds of the Examples above were tested for their effects on serum lipids in vivo using rats made hyperlipidaemic by diet*.
Male Sprague-Dawley rats, 80-100 g , were randomised into groups of 8 after 5 - 7 days of feeding on the diet. The compounds were fed to the rats at a concentration of * 0.1% of the powdered diet (ie approximately 100 mg/kg/ day), unless otherwise stated. The control groups were fed only the diet. At the end of the experiment, ie after 7 days, the rats were killed and their individual total serum cholesterol and triglyceride measured in mg/100 ml using a Technicon Autoanalyser. The high density lipoprotein (HDL)-cholesterol fraction, which was obtained from the serum by precipitation with heparin- manganous chloride, was measured on four 'pooled' samples from each group.
^* A semi-synthetic diet rich in sucrose and cholesterol.

Structure (SMILES)	Percentage difference from Control Values in High Density lipoprotein (HDL) cholesterol	Percentage difference from Control Values in Total Serum Triglyceride	Percentage difference from Control Values in Total Serum Cholesterol
O=C(O)[C@H](Cc1ccccc1)NCc1ccco1 [Example 6, N-(2-Furyl)methyl-L-phenylalanine]	+26* %	+39%	
O=C(O)[C@H](Cc1ccccc1)NCc1ccc2ccccc2c1 [Example 5, N-(2-Naphthyl)methyl-L-phenylalanine]	+30* %	-57* %	+17* %
O=C(O)C(Cc1ccc(Cl)cc1)NCc1ccc(Cl)s1 (racemic) [Example 1, N-[2-(5-chloro)thienyl]methyl-DL-(4-chlorophenyl) alanine]	+31* %	-42* %	+16%
O=C(O)C(Cc1ccc(Cl)cc1)NCc1ccco1 (racemic) [Example 2, N-(2-Furyl)methyl-DL-(4-chlorophenyl)-alanine]	+84* %	-47* %	+61* %
O=C(O)C(Cc1ccc(Cl)cc1)NCc1ccccn1 (racemic) [Example 4, N-(2-pyridyl)methyl-DL-(4-chlorophenyl) alanine]	+44* %	-30* %	+78* %
O=C(O)[C@H](Cc1ccccc1)NCc1cccc2ccccc12 [Example 3, N-(1-Naphthyl)methyl-L-phenylalanine]	+41* %	-63* %	+62* %
